Test results as given in patent publication US20250011299A1, “PYRIDAZINYL AMINO DERIVATIVES AS ALK5 INHIBITORS” (CHIESI FARMACEUTICI S.P.A., priority 2021, published 2025).

What follows are compounds tested against T1, human ALK5 (Homo sapiens, UniProt P36897) (assay: ADP-GLO Kinases assay of ALK5 enzymatic activity). Details: purified recombinant human ALK5, TGFβ1 peptide substrate, pIC50 converted to pKi by Cheng-Prusoff, high ATP protocol (15 μM) for very potent compounds, 25° C.
T1 construct: human ALK5 (recombinant TGF β1 N-term GST-tagged, 80-end); GST (N); purchased
T1 sequence (P36897 80-503 limits assumed): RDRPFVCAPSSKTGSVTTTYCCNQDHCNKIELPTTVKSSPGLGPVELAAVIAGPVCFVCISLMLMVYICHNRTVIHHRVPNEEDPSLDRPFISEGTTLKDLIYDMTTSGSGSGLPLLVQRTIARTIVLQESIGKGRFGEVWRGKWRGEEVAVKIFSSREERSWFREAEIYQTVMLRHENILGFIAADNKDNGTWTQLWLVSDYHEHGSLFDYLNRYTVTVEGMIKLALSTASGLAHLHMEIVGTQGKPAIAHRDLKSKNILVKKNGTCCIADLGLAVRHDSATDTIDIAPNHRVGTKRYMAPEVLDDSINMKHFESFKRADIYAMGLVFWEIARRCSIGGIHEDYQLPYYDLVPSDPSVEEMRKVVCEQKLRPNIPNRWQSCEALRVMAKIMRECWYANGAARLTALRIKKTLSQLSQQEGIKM
Format: biochemical
Protocol: The enzymatic activity of compounds of the present invention was monitored measuring the formation of ADP using the ADP-GLO Kinases assay. Following the incubation of the purified enzyme, a substrate and ATP, the produced ADP was converted into ATP, which in turn was converted into light by Ultra-Glo Luciferase. The luminescent signal positively correlated with ADP amount and kinase activity. […] Compound and ALK5 kinase were mixed and incubated for 15 mins. […] After an incubation of 120 min, the reaction was stopped, and ADP production detected with ADP-Glo kit according to manufacturer's indications. […] After an incubation of 60 min, the kinase reaction was stopped, and ADP production detected with ADP-Glo kit according to manufacturer's indications. All reaction and incubation steps were performed at 25° C. and the assays were performed in 384-well format and validated using a selection of reference compounds tested in 11-point concentration-response curve. […] Results were expressed as pIC50 (negative logarithm of IC50) and subsequently converted to pKi (negative logarithm of […]) using the Cheng-Prusoff equation. The higher the value of pKi, the greater the inhibition of ALK5 activity.
Compound `CN1CCN([C@H]2C[C@@H](C(=O)Nc3cc(Nc4cc(-c5cc(Cl)ccc5F)nnc4N(C)CC4(C)CCOC4=O)ncn3)C2)CC1` (single isomer, unassigned; enantiomer 2) [Example 144, Cis Enantiomer 2 N-(6-{[6-(5-chloro-2-fluorophenyl)-3-{methyl[(3-methyl-2-oxooxolan-3-yl)methyl]amino}pyridazin-4-yl]amino}pyrimidin-4-yl)-3-(4-methylpiperazin-1-yl)cyclobutane-1-carboxamide] has a Ki of no more than 0.1 nM. Compound `CN1CCN(CCC(=O)Nc2cc(Nc3cc(-c4cc(Cl)ccc4F)nnc3SC[C@H]3C[C@@H](O)C3)ccn2)CC1` [Example 154, N-(4-{[6-(5-chloro-2-fluorophenyl)-3-{[(3-hydroxycyclobutyl)methyl]sulfanyl}pyridazin-4-yl]amino}pyridin-2-yl)-3-(4-methylpiperazin-1-yl)propanamide] has a Ki of no more than 0.1 nM. Work on `CN1CCN(CCC(=O)Nc2cc(Nc3cc(-c4cc(Cl)ccc4F)nnc3OCCNS(C)(=O)=O)ccn2)CC1` [Example 9, N-(4-{[6-(5-chloro-2-fluorophenyl)-3-(2-methanesulfonamidoethoxy)pyridazin-4-yl]amino}pyridin-2-yl)-3-(4-methylpiperazin-1-yl)propanamide] yielded a Ki of no more than 0.1 nM. With `CN1CCN(CCC(=O)Nc2cc(Nc3cc(-c4cc(Cl)ccc4F)nnc3SC(C)(C)CO)ccn2)CC1` [Example 93, N-(4-{[6-(5-chloro-2-fluorophenyl)-3-[(1-hydroxy-2-methylpropan-2-yl)sulfanyl]pyridazin-4-yl]amino}pyridin-2-yl)-3-(4-methylpiperazin-1-yl)propanamide] the Ki was 0.126 to 0.316 nM. `CN1CCN(CCC(=O)Nc2cc(Nc3cc(-c4cc(Cl)ccc4F)nnc3S(C)(=O)=O)ccn2)CC1` [Example 18, N-(4-{[6-(5-chloro-2-fluorophenyl)-3-methanesulfonylpyridazin-4-yl]amino}pyridin-2-yl)-3-(4-methylpiperazin-1-yl)propanamide] showed a Ki of 0.126 to 0.316 nM. `CN1CCN(CCC(=O)Nc2cc(Nc3cc(-c4cc(Cl)ccc4F)nnc3N(C)CCC(O)C(F)(F)F)ccn2)CC1` (centres unmarked) [Example 110, N-(4-{[6-(5-chloro-2-fluorophenyl)-3-[methyl(4,4,4-trifluoro-3-hydroxybutyl)amino]pyridazin-4-yl]amino}pyridin-2-yl)-3-(4-methylpiperazin-1-yl)propanamide] was tested, and the Ki was no more than 0.1 nM. `CN1CCN(CCOc2nnc(-c3cc(Cl)ccc3F)cc2Nc2ccnc3[nH]ccc23)CC1` [Example 37, 6-(5-chloro-2-fluorophenyl)-3-[2-(4-methylpiperazin-1-yl)ethoxy]-N-{1H-pyrrolo[2,3-b]pyridin-4-yl}pyridazin-4-amine] gave a Ki of 0.398 to 3.16 nM. For `CN1CCC(COC(=O)c2cccc(CSc3nnc(-c4cc(Cl)ccc4F)cc3Nc3ccnc4[nH]ccc34)c2)CC1` [Example 206, (1-methylpiperidin-4-yl)methyl 3-({[6-(5-chloro-2-fluorophenyl)-4-({1H-pyrrolo[2,3-b]pyridin-4-yl}amino)pyridazin-3-yl]sulfanyl}methyl)benzoate], the Ki was 0.126 to 0.316 nM. In the case of `CN1CCN([C@H]2C[C@@H](C(=O)Nc3cc(Nc4cc(-c5cc(Cl)ccc5F)nnc4SCCO)ncn3)C2)CC1` [Example 91, Cis N-(6-{[6-(5-chloro-2-fluorophenyl)-3-[(2-hydroxyethyl)sulfanyl]pyridazin-4-yl]amino}pyrimidin-4-yl)-3-(4-methylpiperazin-1-yl)cyclobutane-1-carboxamide], the Ki is reported as 0.126 to 0.316 nM. Work on `COc1nnc(-c2cc(Cl)ccc2F)cc1Nc1ccnc2cc(OCCN3CCN(C)CC3)ccc12` [Example 46, N-[6-(5-chloro-2-fluorophenyl)-3-methoxypyridazin-4-yl]-7-[2-(4-methylpiperazin-1-yl)ethoxy]quinolin-4-amine] yielded a Ki of no more than 0.1 nM. Compound `CN1CCN([C@H]2C[C@@H](C(=O)Nc3cc(Nc4cc(-c5cc(Cl)ccc5F)nnc4N(C)CC4(C)CCOC4=O)ccn3)C2)CC1` (single isomer, unassigned) [Example 135, Cis N-(4-{[6-(5-chloro-2-fluorophenyl)-3-{methyl[(3-methyl-2-oxooxolan-3-yl)methyl]amino}pyridazin-4-yl]amino}pyridin-2-yl)-3-(4-methylpiperazin-1-yl)cyclobutane-1-carboxamide] has a Ki of no more than 0.1 nM. `CN1CCN([C@H]2C[C@H](C(=O)Nc3cc(Nc4cc(-c5cc(Cl)ccc5F)nnc4OC4CCOC4)ccn3)C2)CC1` (single isomer, unassigned) [Example 114, N-(4-{[6-(5-chloro-2-fluorophenyl)-3-(oxolan-3-yloxy)pyridazin-4-yl]amino}pyridin-2-yl)-3-(4-methylpiperazin-1-yl)cyclobutane-1-carboxamide] was tested, and the Ki was 0.126 to 0.316 nM. With `CN1CC2CC1CN2CC(=O)Nc1cc(Nc2cc(-c3cc(Cl)ccc3F)nnc2SCCO)ccn1` (centres unmarked) [Example 25, N-(4-{[6-(5-chloro-2-fluorophenyl)-3-[(2-hydroxyethyl)sulfanyl]pyridazin-4-yl]amino}pyridin-2-yl)-2-{5-methyl-2,5-diazabicyclo[2.2.1]heptan-2-yl}acetamide] the Ki was no more than 0.1 nM. `CN1CCN(CCOc2nnc(-c3cc(Cl)ccc3F)cc2Nc2ccnc(NC(=O)C3CC3)c2)CC1` [Example 36, N-(4-{[6-(5-chloro-2-fluorophenyl)-3-[2-(4-methylpiperazin-1-yl)ethoxy]pyridazin-4-yl]amino}pyridin-2-yl)cyclopropanecarboxamide] was tested, and the Ki was no more than 0.1 nM. `CSCCCOc1nnc(-c2cc(Cl)ccc2F)cc1Nc1ccnc(NC(=O)CCN2CCN(C)CC2)c1` [Example 4, N-(4-{[6-(5-chloro-2-fluorophenyl)-3-[3-(methylsulfanyl)propoxy]pyridazin-4-yl]amino}pyridin-2-yl)-3-(4-methylpiperazin-1-yl)propanamide] showed a Ki of 0.126 to 0.316 nM. With `CN1CCN(CCC(=O)Nc2cc(Nc3cc(-c4cc(Cl)ccc4F)nnc3N3CC(CO)C3)ccn2)CC1` [Example 95, N-(4-{[6-(5-chloro-2-fluorophenyl)-3-[3-(hydroxymethyl)azetidin-1-yl]pyridazin-4-yl]amino}pyridin-2-yl)-3-(4-methylpiperazin-1-yl)propanamide] the Ki was no more than 0.1 nM. With `CN1CCN(CCC(=O)Nc2cc(Nc3cc(-c4cc(Cl)ccc4F)nnc3SCC(O)CO)ccn2)CC1` (centres unmarked) [Example 86, N-(4-{[6-(5-chloro-2-fluorophenyl)-3-[(2,3-dihydroxypropyl)sulfanyl]pyridazin-4-yl]amino}pyridin-2-yl)-3-(4-methylpiperazin-1-yl)propanamide] the Ki was no more than 0.1 nM. With `Cc1ccc(F)c(-c2cc(Nc3ccnc(NC(=O)CCN4CCN(C)CC4)c3)c(OCC(F)(F)F)nn2)n1` [Example 68, N-(4-{[6-(3-fluoro-6-methylpyridin-2-yl)-3-(2,2,2-trifluoroethoxy)pyridazin-4-yl]amino}pyridin-2-yl)-3-(4-methylpiperazin-1-yl)propanamide] the Ki was 0.126 to 0.316 nM. `CN1CCN(CCC(=O)Nc2cc(Nc3cc(-c4cc(Cl)ccc4F)nnc3N(C)[C@@H]3CCOC3)ccn2)CC1` (single isomer, unassigned) [Example 107, N-(4-{[6-(5-chloro-2-fluorophenyl)-3-[methyl(oxolan-3-yl)amino]pyridazin-4-yl]amino}pyridin-2-yl)-3-(4-methylpiperazin-1-yl)propanamide] gave a Ki of no more than 0.1 nM. For `CS(=O)(=O)CCCOc1nnc(-c2cc(Cl)ccc2F)cc1Nc1ccnc(N)c1` [Example 56, N4-[6-(5-chloro-2-fluorophenyl)-3-(3-methanesulfonylpropoxy)pyridazin-4-yl]pyridine-2,4-diamine], the Ki was 0.398 to 3.16 nM. In the case of `CN1CCN(CCC(=O)Nc2cc(Nc3cc(-c4cc(Cl)ccc4F)nnc3OCC3COC(=O)O3)ccn2)CC1` (centres unmarked) [Example 79, N-(4-{[6-(5-chloro-2-fluorophenyl)-3-[(2-oxo-1,3-dioxolan-4-yl)methoxy]pyridazin-4-yl]amino}pyridin-2-yl)-3-(4-methylpiperazin-1-yl)propanamide], the Ki is reported as no more than 0.1 nM. `CN1CCN(CCC(=O)Nc2cc(Nc3cc(-c4cc(Cl)ccc4F)nnc3OC3CCOC3)ccn2)CC1` (single isomer, unassigned) [Example 75, N-(4-{[6-(5-chloro-2-fluorophenyl)-3-(oxolan-3-yloxy)pyridazin-4-yl]amino}pyridin-2-yl)-3-(4-methylpiperazin-1-yl)propanamide] gave a Ki of no more than 0.1 nM. `CC(C)OC(=O)C1CCN1c1nnc(-c2cc(Cl)ccc2F)cc1Nc1ccnc(NC(=O)CCN2CCN(C)CC2)c1` (racemic) [Example 150, propan-2-yl 1-[6-(5-chloro-2-fluorophenyl)-4-({2-[3-(4-methylpiperazin-1-yl)propanamido]pyridin-4-yl}amino)pyridazin-3-yl]azetidine-2-carboxylate] gave a Ki of 0.398 to 3.16 nM.
